According to PubChem BioAssay (NCI):
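Compound exposure: 48 hours, 5 concentrations, 96-well plates. GI50: concentration for 50% inhibition of growth. TGI: total growth inhibition.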

What was measured:
Experiment in all cases: NCI-60 cell line screen, 48 h
U251 CNS = test system: U251 CNS
HOP-62 NSCLC = test system: HOP-62 NSCLC
HL-60(TB) leukemia = test system: HL-60(TB) leukemia
A549 NSCLC = test system: A549 NSCLC
MDA-MB-231 breast = test system: MDA-MB-231 breast
SK-OV-3 ovarian = test system: SK-OV-3 ovarian
MDA-MB-435 = test system: MDA-MB-435
TK-10 renal = test system: TK-10 renal
PC-3 prostate = test system: PC-3 prostate
NCI-H226 lung = test system: NCI-H226 lung
M14 melanoma = test system: M14 melanoma
SK-MEL-5 melanoma = test system: SK-MEL-5 melanoma
UACC-62 melanoma = test system: UACC-62 melanoma
T-47D breast = test system: T-47D breast
MALME-3M melanoma = test system: MALME-3M melanoma
NCI-H522 lung = test system: NCI-H522 lung
SK-MEL-2 melanoma = test system: SK-MEL-2 melanoma
HCC-2998 colon = test system: HCC-2998 colon
NCI-H460 lung = test system: NCI-H460 lung
OVCAR-3 ovarian = test system: OVCAR-3 ovarian
ACHN renal = test system: ACHN renal
HS 578T breast = test system: HS 578T breast
CAKI-1 renal = test system: CAKI-1 renal
SW-620 colon = test system: SW-620 colon
OVCAR-4 ovarian = test system: OVCAR-4 ovarian
SN12C renal = test system: SN12C renal
KM12 colon = test system: KM12 colon
MOLT-4 leukemia = test system: MOLT-4 leukemia
EKVX NSCLC = test system: EKVX NSCLC
SR leukemia = test system: SR leukemia
HOP-92 NSCLC = test system: HOP-92 NSCLC
SNB-75 CNS = test system: SNB-75 CNS
NCI/ADR-RES ovarian = test system: NCI/ADR-RES ovarian
BT-549 breast = test system: BT-549 breast
IGROV1 ovarian = test system: IGROV1 ovarian
MCF7 breast = test system: MCF7 breast
SK-MEL-28 melanoma = test system: SK-MEL-28 melanoma
SF-295 CNS = test system: SF-295 CNS
786-0 renal = test system: 786-0 renal
COLO 205 colon = test system: COLO 205 colon
SNB-19 CNS = test system: SNB-19 CNS
K-562 leukemia = test system: K-562 leukemia
DU-145 prostate = test system: DU-145 prostate
HCT-116 colon = test system: HCT-116 colon
RXF 393 renal = test system: RXF 393 renal
HT29 colon = test system: HT29 colon
RPMI-8226 leukemia = test system: RPMI-8226 leukemia
A498 renal = test system: A498 renal
SF-268 CNS = test system: SF-268 CNS
CCRF-CEM leukemia = test system: CCRF-CEM leukemia
HCT-15 colon = test system: HCT-15 colon
OVCAR-8 ovarian = test system: OVCAR-8 ovarian
LOX IMVI melanoma = test system: LOX IMVI melanoma
OVCAR-5 ovarian = test system: OVCAR-5 ovarian
NCI-H23 lung = test system: NCI-H23 lung
SF-539 CNS = test system: SF-539 CNS
UACC-257 melanoma = test system: UACC-257 melanoma
UO-31 renal = test system: UO-31 renal

## O=C(Nc1ccc(-n2ccc3c(NC(=O)c4ccccc4)nccc32)cc1)c1cccc(C(F)(F)F)c1
U251 CNS
  GI50: 0.158 µM
  TGI: 7.09 µM
HOP-62 NSCLC
  GI50: 2.02 µM
  TGI: 14.5 µM
HL-60(TB) leukemia
  GI50: 0.685 µM
  TGI: 15.3 µM
A549 NSCLC
  GI50: 0.418 µM
  TGI: 9.4 µM
MDA-MB-231 breast
  GI50: 2.88 µM
  TGI: 14.7 µM
SK-OV-3 ovarian
  GI50: 0.879 µM
  TGI: 15.4 µM
MDA-MB-435
  GI50: 0.657 µM
  TGI: 4.98 µM
TK-10 renal
  GI50: 1.53 µM
  TGI: 12.6 µM
PC-3 prostate
  GI50: 1.29 µM
  TGI: 27.3 µM
NCI-H226 lung
  GI50: 2.56 µM
  TGI: > 50 µM
M14 melanoma
  GI50: 1.38 µM
  TGI: 9.06 µM
SK-MEL-5 melanoma
  GI50: 0.194 µM
  TGI: 6.65 µM
UACC-62 melanoma
  GI50: 0.714 µM
  TGI: 8.48 µM
T-47D breast
  GI50: 4.66 µM
  TGI: 30.9 µM
MALME-3M melanoma
  GI50: 2.04 µM
  TGI: 12.2 µM
NCI-H522 lung
  GI50: 1.07 µM
  TGI: > 13.5 µM
SK-MEL-2 melanoma
  GI50: 1.29 µM
  TGI: 7.27 µM
HCC-2998 colon
  GI50: 1.71 µM
  TGI: 11.6 µM
NCI-H460 lung
  GI50: 0.119 µM
  TGI: 5.38 µM
OVCAR-3 ovarian
  GI50: 1 µM
  TGI: 7.89 µM
ACHN renal
  GI50: 0.624 µM
  TGI: 14.7 µM
HS 578T breast
  GI50: 1.42 µM
  TGI: 13.1 µM
CAKI-1 renal
  GI50: 0.326 µM
  TGI: 7.92 µM
SW-620 colon
  GI50: 0.381 µM
  TGI: 7.32 µM
OVCAR-4 ovarian
  GI50: 2.7 µM
  TGI: 22.6 µM
SN12C renal
  GI50: 1.67 µM
  TGI: > 35.6 µM
KM12 colon
  GI50: 0.4 µM
  TGI: 7.64 µM
MOLT-4 leukemia
  GI50: 0.29 µM
  TGI: > 25.9 µM
EKVX NSCLC
  GI50: 4.33 µM
  TGI: > 50 µM
SR leukemia
  GI50: 0.0753 µM
  TGI: > 18 µM
HOP-92 NSCLC
  GI50: 1.96 µM
  TGI: > 50 µM
SNB-75 CNS
  GI50: 0.707 µM
  TGI: 6.59 µM
NCI/ADR-RES ovarian
  GI50: 0.724 µM
  TGI: 11.9 µM
BT-549 breast
  GI50: 2.03 µM
  TGI: 22.3 µM
IGROV1 ovarian
  GI50: 1.4 µM
  TGI: > 50 µM
MCF7 breast
  GI50: 0.413 µM
  TGI: 7.94 µM
SK-MEL-28 melanoma
  GI50: 2.4 µM
  TGI: 11 µM
SF-295 CNS
  GI50: 0.392 µM
  TGI: 7.99 µM
786-0 renal
  GI50: 0.728 µM
  TGI: 9.14 µM
COLO 205 colon
  GI50: 1.42 µM
  TGI: 10.3 µM
SNB-19 CNS
  GI50: 0.729 µM
  TGI: 20.1 µM
K-562 leukemia
  GI50: 0.231 µM
  TGI: > 23.1 µM
DU-145 prostate
  GI50: 1.64 µM
  TGI: 9.71 µM
HCT-116 colon
  GI50: 0.177 µM
  TGI: 6.92 µM
RXF 393 renal
  GI50: 1.02 µM
  TGI: 5.97 µM
HT29 colon
  GI50: 0.243 µM
  TGI: 4.02 µM
RPMI-8226 leukemia
  GI50: 0.614 µM
  TGI: 14.2 µM
A498 renal
  GI50: 0.905 µM
  TGI: 15.6 µM
SF-268 CNS
  GI50: 0.473 µM
  TGI: 25.6 µM
CCRF-CEM leukemia
  GI50: 0.313 µM
  TGI: 13.2 µM
HCT-15 colon
  GI50: 0.0428 µM
  TGI: 6.99 µM
OVCAR-8 ovarian
  GI50: 0.393 µM
  TGI: 10.3 µM
LOX IMVI melanoma
  GI50: 0.182 µM
  TGI: 5.4 µM
OVCAR-5 ovarian
  GI50: 3.07 µM
  TGI: > 50 µM
NCI-H23 lung
  GI50: 3.88 µM
  TGI: > 36.1 µM
SF-539 CNS
  GI50: 0.47 µM
  TGI: 11.5 µM
UACC-257 melanoma
  GI50: 2.09 µM
  TGI: > 21.6 µM
UO-31 renal
  GI50: 1.83 µM
  TGI: 15.9 µM
